Among the data in patent US11319322B2, “Substituted aryl ether compound, preparation method thereof, pharmaceutical composition and use thereof” (Xiamen University, priority 2017, dated 2022) are GI50 values, retold here.

For one assay, the target named is T1, CCDC6-RET-BaF3 (Homo sapiens, UniProt P07949).
T1 construct: fused on or other part: Q16204 (Coiled-coil domain-containing protein 6)
In words: Growth inhibition of CCDC6-RET-BaF3 cells stably transfected with kinase (MTS). It counts as cell-based. The note with it: 48 h, read-out: CCDC6-RET (IC50/nM). How it is done: (§1) Growth inhibitory activity of compounds on cell lines stably transfected with kinase
(§2) The activity of compounds against kinase RET is evaluated by their effect of inhibiting growth of cell lines stably transfected with kinase CCDC6-RET-BaF3, KIF5B-RET-BaF3, and wild-type BaF3 (Proc. Natl. Acad. Sci. USA., 2006, 103, 3153-8.). The growth of the cell lines stably transfected with kinase CCDC6-RET-BaF3, KIF5B-RET-BaF3 depends on their kinase activity. If a compound can inhibit the activity of the kinase RET per se or the activity of the RET signaling pathway, the compound can inhibit the growth of BaF3 cells stably transfected with kinase. […] Therefore, a larger ratio between IC50 of a compound to wild-type BaF3 and IC50 of the compound to the cell lines stably transfected with kinase CCDC6-RET-BaF3, KIF5B-RET-BaF3 indicates better targeting.
(§3) The specific test method is given as follows:
(§4) 1) Medium: DMEM (Dulbecco's modified eagle medium) or RPMI 1640 (containing 10% fetal bovine serum, 100 μg/mL ampicillin, 100 μg/mL streptomycin).
(§5) 2) Reagents: MTS reaction solution (containing 2 mg/mL of MTS [3-(4,5-dimethylthiazol-2-yl)-5-(3-carboxymethoxyphenyl)-2-(4-sulfophenyl)-2H-tetrazolium, inner Salt]; 100 μg/mL PES (phenazine […])).
(§6) 3) Compound test: cells stably transfected with kinase (CCDC6-RET-BaF3, KIF5B-RET-BaF3) or wild-type BaF3 cells (2×10^4 cells/well) were incubated into a 96-well culture plate, the volume of cell culture fluid was 90 μL, and then 10 μL of the compound at each gradient concentration was added (the highest concentration was 10 μM, which was diluted stepwise by ⅓, and 8 concentration points were set in total; the system contained 0.1% DMSO (dimethyl sulfoxide)). The cell plate with uniformly mixed compound was cultured in a cell culture incubator (37° C.; 5% CO2) for 48 h, then 20 μL of MTS reaction solution was added, uniformly mixed and incubated in the cell culture incubator (37° C.; 5% CO2) for 1-4 hr, OD values at 490 nm were measured by a microplate reader (VARIOSKAN FLASH, Thermo). Three parallels were set in each group of experiments, with 0.1% (a final concentration) DMSO as a negative control, and a medium without cells or compounds as a blank control. The cell growth inhibition rate was calculated by the following formula: Cell growth inhibition rate %=1−(ODexperimental group−ODblank group)/(ODnegative group−ODblank group)×100%
(§7) 4) IC50 calculation: The semi-inhibitory concentration of the compound acting on cell growth was calculated using GradPad Prism 5 software according to the measured cell growth inhibition rate.

The target in another assay is T2, KIF5B-RET-BaF3 (Homo sapiens, UniProt P07949).
T2 construct: fused on or other part: P33176 (Kinesin-1 heavy chain)
T2 sequence (P07949 whole entry, change not shown, the tested form may be a part): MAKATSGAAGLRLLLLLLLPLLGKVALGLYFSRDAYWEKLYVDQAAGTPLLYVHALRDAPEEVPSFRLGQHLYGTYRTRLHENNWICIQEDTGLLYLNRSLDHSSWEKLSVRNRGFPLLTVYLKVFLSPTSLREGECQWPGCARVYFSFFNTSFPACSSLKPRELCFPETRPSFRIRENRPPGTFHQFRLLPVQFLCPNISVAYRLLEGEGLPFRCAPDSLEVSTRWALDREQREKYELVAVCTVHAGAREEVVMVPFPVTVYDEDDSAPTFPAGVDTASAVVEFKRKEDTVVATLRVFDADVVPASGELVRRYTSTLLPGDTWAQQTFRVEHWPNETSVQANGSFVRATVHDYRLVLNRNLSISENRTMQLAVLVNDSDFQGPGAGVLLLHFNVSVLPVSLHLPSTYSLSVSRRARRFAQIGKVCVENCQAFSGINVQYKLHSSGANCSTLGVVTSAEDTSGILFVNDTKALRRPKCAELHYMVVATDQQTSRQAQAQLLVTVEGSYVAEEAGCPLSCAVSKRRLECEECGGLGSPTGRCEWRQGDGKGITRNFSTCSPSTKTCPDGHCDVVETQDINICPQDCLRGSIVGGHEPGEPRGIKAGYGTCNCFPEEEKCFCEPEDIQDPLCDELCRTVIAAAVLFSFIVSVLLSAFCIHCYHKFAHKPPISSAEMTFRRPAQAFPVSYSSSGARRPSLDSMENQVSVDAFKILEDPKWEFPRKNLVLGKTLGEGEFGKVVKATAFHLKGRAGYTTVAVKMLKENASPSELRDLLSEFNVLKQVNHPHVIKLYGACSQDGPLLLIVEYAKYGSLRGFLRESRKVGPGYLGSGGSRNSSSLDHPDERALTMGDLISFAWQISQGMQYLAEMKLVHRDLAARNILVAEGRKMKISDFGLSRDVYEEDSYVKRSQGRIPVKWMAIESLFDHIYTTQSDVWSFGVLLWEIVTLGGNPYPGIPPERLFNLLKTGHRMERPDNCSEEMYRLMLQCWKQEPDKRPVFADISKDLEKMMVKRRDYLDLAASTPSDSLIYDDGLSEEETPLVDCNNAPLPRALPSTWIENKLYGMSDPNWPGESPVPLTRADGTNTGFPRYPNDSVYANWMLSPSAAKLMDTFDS
Description: Growth inhibition of KIF5B-RET-BaF3 cells stably transfected with kinase (MTS). In kind it is cell-based. The note with it: 48 h, read-out: KIF5B-RET (IC50/nM). How it is done:
as §1, §2, §3, §4, §5, §6, §7

T1 sequence (P07949 whole entry, change not shown, the tested form may be a part): as above

For `Cc1ccc(Oc2nc(-c3ccoc3)nc3c2cnn3C)cc1NC(=O)c1ccc(CN2CCN(C)CC2)c(C(F)(F)F)c1` [II-j-3], the GI50 on CCDC6-RET-BaF3 was determined as 1420 nM; on KIF5B-RET-BaF3, 3210 nM.
For `CN1CCN(Cc2ccc(NC(=O)c3cccc(Oc4cc(-c5ccncc5)nc5sccc45)c3)cc2C(F)(F)F)CC1` [VII-l-2] the same measures were 215 nM and 315 nM.
For `CN1CCN(Cc2ccc(NC(=O)c3cccc(Oc4nc(-c5ccncc5)nc5cc[nH]c45)c3)cc2C(F)(F)F)CC1` [III-l-2] the same measures were 22.7 nM and 5.71 nM.
For `CCC(=O)NC1CCN(c2ccc(NC(=O)c3ccc(C)c(Oc4nc(-c5ccncc5)nc5c4cnn5C)c3)cc2C(F)(F)F)CC1` [II-v-8] the same measures were 346 nM and 407 nM.
For `Cc1ccc(Oc2nc(-c3ccncc3)nc3cc[nH]c23)cc1NC(=O)c1ccc(CN2CCN(C)CC2)c(C(F)(F)F)c1` [III-j-2], the GI50 at CCDC6-RET-BaF3 came out at 6.06 nM; on KIF5B-RET-BaF3 it was 2.32 nM.
For `Cc1ccc(Oc2nc(-c3cccc(Cl)c3)nc3c2ncn3C)cc1C(=O)Nc1ccc(CN2CCN(C)CC2)c(C(F)(F)F)c1` [I-n-5] the same measures were 1540 nM and 1510 nM.
For `CN1CCN(Cc2cc(NC(=O)c3cccc(Oc4nc(-c5cccnc5)nc5c4cnn5C)c3)cc(C(F)(F)F)c2)CC1` [II-p-1] the same measures were 268 nM and 251 nM.
For the molecule `Cc1ccc(C(=O)Nc2ccc(CN3CCN(C)CC3)c(C(F)(F)F)c2)cc1Oc1nc(N(C)C)nc2c1cnn2C` [II-m-18], the results for the GI50 at CCDC6-RET-BaF3 and on KIF5B-RET-BaF3 were 257 nM and 34.3 nM, respectively.
For `Cc1ccc(Oc2nc(-c3ccncc3)nc3c2cnn3C)cc1C(=O)Nc1ccc(CN2CCN(C)CC2)c(C(F)(F)F)c1` [II-n-2] the same measures were 1520 nM and 440 nM.
For `Cc1ccc(Oc2nc(-c3ccoc3)nc3c2ncn3C)cc1C(=O)Nc1ccc(CN2CCN(C)CC2)c(C(F)(F)F)c1` [I-n-11] the same measures were 1200 nM and 1960 nM.
For `Cc1ccc(C(=O)Nc2ccc(CN3CCN(C)CC3)c(C(F)(F)F)c2)cc1Oc1nc(-c2cccnc2)nc2c1ncn2C` [I-m-2] the same measures were 710 nM and 1300 nM.
Take `Cc1ccc(Oc2nc(-c3ccc(N)cc3)nc3c2ncn3C)cc1C(=O)Nc1ccc(CN2CCN(C)CC2)c(C(F)(F)F)c1` [I-n-10]: the GI50 at CCDC6-RET-BaF3 and at KIF5B-RET-BaF3 was 1400 nM each time.
`Cc1ccc(C(=O)Nc2cc(CN3CCN(C)CC3)cc(C(F)(F)F)c2)cc1Oc1nc(-c2ccncc2)nc2c1cnn2C` [II-s-2]: the figures for the GI50 at CCDC6-RET-BaF3 and on KIF5B-RET-BaF3 were 188 nM and 355 nM, respectively.
For `Cc1ccc(C(=O)Nc2ccc(CN3CCN(C)CC3)c(C(F)(F)F)c2)cc1Oc1nc(-c2ccoc2)nc2ccn(C)c12` [III-m-17] the same measures were 3150 nM and 2760 nM.
On to `CC(C)n1cnc2c(Oc3ccc(Cl)c(C(=O)Nc4ccc(CN5CCN(C)CC5)c(C(F)(F)F)c4)c3)nc(-c3ccncc3)nc21` [I-o-12], for which the GI50 was 55.2 nM on CCDC6-RET-BaF3 and 154 nM on KIF5B-RET-BaF3.
Consider `Cc1ccc(Oc2cc(-c3ccncc3)nc3sccc23)cc1C(=O)Nc1ccc(CN2CCN(C)CC2)c(C(F)(F)F)c1` [VII-n-2], for which the GI50 was 221 nM at CCDC6-RET-BaF3 and 405 nM at KIF5B-RET-BaF3.
Regarding `Cc1ccc(C(=O)Nc2ccc(CN3CCN(C)CC3)c(C(F)(F)F)c2)cc1Oc1nc(-c2cccc(O)c2)nc2c1cnn2C` [II-m-7], the values for the GI50 at CCDC6-RET-BaF3 and on KIF5B-RET-BaF3 were 178 nM and 28.3 nM, respectively.
For `Cc1ccc(Oc2nc(-c3ccc(O)cc3)nc3c2ncn3C)cc1C(=O)Nc1ccc(CN2CCN(C)CC2)c(C(F)(F)F)c1` [I-n-8] the same measures were 1210 nM and 1330 nM.
For `CN1CCN(Cc2ccc(NC(=O)c3cc(Oc4nc(-c5cccnc5)nc5nn(C)cc45)ccc3Cl)cc2C(F)(F)F)CC1` [IV-o-1] the same measures were 1980 nM and 1720 nM.
As to `CN1CCN(Cc2ccc(NC(=O)c3cc(Oc4cc(-c5ccncc5)nc5sccc45)ccc3Cl)cc2C(F)(F)F)CC1` [VII-o-2], the GI50 was 326 nM at CCDC6-RET-BaF3 and 499 nM on KIF5B-RET-BaF3.
For `CCC(=O)NCC1CCN(c2ccc(NC(=O)c3ccc(C)c(Oc4nc(-c5ccncc5)nc5[nH]ncc45)c3)cc2C(F)(F)F)CC1` [II-v-17] the same measures were 900 nM and 1040 nM.
For `CN1CCN(Cc2ccc(NC(=O)c3cc(Oc4nc(-c5cccc(Cl)c5)nc5c4ncn5C)ccc3Cl)cc2C(F)(F)F)CC1` [I-o-4] the same measures were 1400 nM and 1410 nM.
As to `CN1CCN(Cc2ccc(NC(=O)c3cc(Oc4nc(-c5cccc(O)c5)nc5c4ncn5C)ccc3Cl)cc2C(F)(F)F)CC1` [I-o-6], the GI50 is 1290 nM on CCDC6-RET-BaF3 and 1360 nM at KIF5B-RET-BaF3.
For `CN1CCN(Cc2ccc(C(=O)Nc3cccc(Oc4nc(-c5ccncc5)nc5ccn(C)c45)c3)cc2C(F)(F)F)CC1` [III-h-4] the same measures were 195 nM and 180 nM.
For `CN1CCN(Cc2ccc(NC(=O)c3cc(Oc4nc(-c5ccc(Cl)cc5)nc5nn(C)cc45)ccc3Cl)cc2C(F)(F)F)CC1` [IV-o-5] the same measures were 4090 nM and 3390 nM.
For `CC(C)n1cnc2c(Oc3cccc(NC(=O)c4ccc(CN5CCN(C)CC5)c(C(F)(F)F)c4)c3)nc(-c3ccncc3)nc21` [I-h-1] the same measures were 4930 nM and 2290 nM.
Turning to `Cc1ccc(NC(=O)c2ccc(CN3CCN(C)CC3)c(C(F)(F)F)c2)cc1Oc1nc(-c2ccncc2)nc2cc[nH]c12` [III-i-2], the figures for the GI50 on CCDC6-RET-BaF3 and on KIF5B-RET-BaF3 were 1400 nM and 774 nM, respectively.
As for `CN1CCN(Cc2ccc(NC(=O)c3cccc(Oc4nc(-c5cccnc5)nc5ccn(C)c45)c3)cc2C(F)(F)F)CC1` [III-l-3], the GI50 amounted to 1400 nM on CCDC6-RET-BaF3 and 1540 nM at KIF5B-RET-BaF3.
For `CN1CCN(Cc2ccc(NC(=O)c3cc(Oc4nc(-c5cccnc5)nc5c4ncn5C)ccc3Cl)cc2C(F)(F)F)CC1` [I-o-1] the same measures were 1470 nM and 1390 nM.
For `CN1CCN(Cc2ccc(NC(=O)c3cccc(Oc4cc(-c5cccnc5)nc5sccc45)c3)cc2C(F)(F)F)CC1` [VII-l-1] the same measures were 1020 nM and 1350 nM.
For `Cc1ccc(NC(=O)c2cccc(C(F)(F)F)c2)cc1Oc1nc(-c2ccncc2)nc2nn(C)cc12` [IV-b-2] the same measures were 5870 nM and 4170 nM.
Regarding `Cc1ccc(NC(=O)c2ccc(CN3CCN(C)CC3)c(C(F)(F)F)c2)cc1Oc1ncnc2c1cnn2C` [II-i-3], the GI50 on CCDC6-RET-BaF3 came to 881 nM; at KIF5B-RET-BaF3, 1040 nM.
For `Cc1ccc(Oc2cc(-c3ccncc3)nc3sccc23)cc1NC(=O)c1ccc(CN2CCN(C)CC2)c(C(F)(F)F)c1` [VII-j-2] the same measures were 95.6 nM and 189 nM.
For `Cc1ccc(Oc2cc(-c3cccnc3)nc3sccc23)cc1C(=O)Nc1ccc(CN2CCN(C)CC2)c(C(F)(F)F)c1` [VII-n-1] the same measures were 1690 nM and 1780 nM.
As for `Cc1ccc(Oc2nc(-c3ccncc3)nc3cc[nH]c23)cc1C(=O)Nc1ccc(CN2CCN(C)CC2)c(C(F)(F)F)c1` [III-n-2], the GI50 on CCDC6-RET-BaF3 amounted to 53.7 nM; on KIF5B-RET-BaF3 it was 21 nM.
For `Cc1ccc(C(=O)Nc2ccc(CN3CCN(C)CC3)c(C(F)(F)F)c2)cc1Oc1nc(N2CCOCC2)nc2c1cnn2C` [II-m-15] the same measures were 111 nM and 18 nM.
Turning to `Cc1ccc(C(=O)Nc2cc(CN3CCN(C)CC3)cc(C(F)(F)F)c2)cc1Oc1nc(-c2cccnc2)nc2c1cnn2C` [II-s-1], the GI50 at CCDC6-RET-BaF3 came to 264 nM; at KIF5B-RET-BaF3 it was 482 nM.
For `CN1CCN(Cc2ccc(NC(=O)c3cc(Oc4nc(-c5ccncc5)nc5nn(C)cc45)ccc3Cl)cc2C(F)(F)F)CC1` [IV-o-2] the same measures were 88.6 nM and 12.1 nM.
For `Cc1ccc(Oc2nc(-c3ccncc3)nc3ccn(C)c23)cc1C(=O)Nc1ccc(CN2CCN(C)CC2)c(C(F)(F)F)c1` [III-n-4] the same measures were 43.1 nM and 17.2 nM.
For the molecule `Cc1ccc(Oc2nc(-c3ccc(Cl)cc3)nc3c2ncn3C)cc1C(=O)Nc1ccc(CN2CCN(C)CC2)c(C(F)(F)F)c1` [I-n-6], the GI50 at CCDC6-RET-BaF3 was determined as 1780 nM; at KIF5B-RET-BaF3 it was 1380 nM.
